Results from patent US11066409B2, “Bicyclic nitrogen-containing heterocyclic derivatives and pharmaceutical composition comprising the same” (Shionogi & Co., Ltd., priority 2016, dated 2021).

Experiments:
human PXR = human PXR (Homo sapiens (Human), UniProt O75469); assay: Evaluation of activation of human pregnane X receptor (PXR), DPX2 cells; type: cell-based; settings: 48 hours, emission intensity divided by fluorescence intensity
Experimental: A Human PXR activation (Puracyp, Inc.) kit was used for evaluation.
DPX2 cells expressing human PXR were seeded in a 96-well plate at a concentration of 40000 cells/well and cultured at 37° C. under 5% carbon dioxide for 24 hours (medium: culture medium for DPX2 cells containing 10% fetal bovine serum, antibiotics, sodium pyruvate, D-glucose, and phenol red). After culture for 24 hours, a DMSO solution of the compound of the present invention was diluted with a medium (dosing medium for DPX2 cells containing 10% fetal bovine serum, D-glucose, antibiotics, sodium pyruvate, and L-glutamine) so that the final concentration was 10 and 50 μM, and a rifampicin DMSO solution as a positive control drug was 0.2, 1, 2, and 20 μM. The medium was removed from the 96-well plate after culture for 24 hours. 100 μL of the solution of the compound of the present invention and 100 μL of the rifampicin solution prepared were added to each well, and cultured for 48 hours. The medium was removed from the 96-well plate after culture for 48 hours. 100 μL of each reaction mixture obtained by adding 5.25 μL of CellTiter-Fluor to 10.5 mL of TubeE was filled therein. The plate was set in a plate reader (PerkinElmer, Inc.) after culture for 1 hour to measure the fluorescence intensity at an interval of 0.1 seconds per well. The plate was taken out. 100 μL of a solution obtained by adding ONE-Glo Assay Substrate to ONE-Glo Assaybuffer was added to each well. After 2 minutes from the addition of the solution, the plate was set in the plate reader to measure the […] at an interval of 2 seconds per well. The PXR activity of the product of the present invention was a value obtained by dividing the emission intensity by the fluorescence intensity.

[1] = test system: partial sciatic nerve ligation model in rats; assay: Analgesic effect in a Seltzer model (partial sciatic nerve ligation), mechanical allodynia by von Frey filaments; type: in vivo; settings: 1 h, rat, oral, 1 mg/kg, reversal of mechanical allodynia, approximately 1 to 5 hours after administration
Excerpt: Preparation of Partial Sciatic Nerve Ligation Model in Rats
Rats were anaesthetized using isoflurane/O2 inhalation anaesthesia. After induction of anesthesia, the left thigh was shaved. An incision was made in the skin just below the hip bone. The muscle was bluntly dissected to expose the sciatic nerve. About one half (½) of the sciatic nerve thickness was tightly ligated with a nylon thread and the wound was closed. The right thigh was used as a sham-operated control. The right thigh underwent an identical procedure with the left hind limb, however, the sciatic nerve was not manipulated or ligated.
Two weeks after nerve ligation, the effect on mechanical allodynia was assessed using a series of von Frey filaments. For habituation, the rats were placed into a plastic cage on a wire mesh bottom. Von Frey filaments (0.4 to 26 g) were applied to the plantar surface of the rat hind paws from the wire mesh side, and the value of the filament pressure at which the paw was withdrawn was used as a pain threshold. The measurement of mechanical sensitivity of the right and left hind paws was performed to obtain predose mechanical sensitivity. The rats showing the threshold change from 0.6 to 2 g (in nerve ligated side) and 8 to 15 g (in sham operated side) were used in the experiments. On the day before the experiment, the rats were evaluated with a series of von Frey filaments to familiarize them with the test procedure. The adopted animal was administrated with the compounds of the present invention. The compounds of the present invention were homogenized with mortar and pestle and suspended or diluted in 0.5% Methyl Cellulose to prepare 0.03-100 mg/2 mL/kg suspension and orally administered to rat using a syringe attached with a sonde. Post-dose mechanical sensitivities of the right and left hind paws were measured at approximately 1 to 5 hours after drug administration. Percent reversal of mechanical allodynia for each rat was calculated using the following formula. The analgesic effects of the compounds were compared.

human P2X7 receptor = human P2X7 receptor (Homo sapiens (Human), UniProt Q99572, R270H); assay: Evaluation of a human P2X7 receptor inhibitory activity (Yo-Pro uptake, BzATP stimulation, FLIPR TETRA); type: cell-based; settings: 1321N1 cells stably expressing human P2X7 receptor, Yo-Pro fluorescence
human P2X7 receptor, sequence (Q99572 whole entry R270H): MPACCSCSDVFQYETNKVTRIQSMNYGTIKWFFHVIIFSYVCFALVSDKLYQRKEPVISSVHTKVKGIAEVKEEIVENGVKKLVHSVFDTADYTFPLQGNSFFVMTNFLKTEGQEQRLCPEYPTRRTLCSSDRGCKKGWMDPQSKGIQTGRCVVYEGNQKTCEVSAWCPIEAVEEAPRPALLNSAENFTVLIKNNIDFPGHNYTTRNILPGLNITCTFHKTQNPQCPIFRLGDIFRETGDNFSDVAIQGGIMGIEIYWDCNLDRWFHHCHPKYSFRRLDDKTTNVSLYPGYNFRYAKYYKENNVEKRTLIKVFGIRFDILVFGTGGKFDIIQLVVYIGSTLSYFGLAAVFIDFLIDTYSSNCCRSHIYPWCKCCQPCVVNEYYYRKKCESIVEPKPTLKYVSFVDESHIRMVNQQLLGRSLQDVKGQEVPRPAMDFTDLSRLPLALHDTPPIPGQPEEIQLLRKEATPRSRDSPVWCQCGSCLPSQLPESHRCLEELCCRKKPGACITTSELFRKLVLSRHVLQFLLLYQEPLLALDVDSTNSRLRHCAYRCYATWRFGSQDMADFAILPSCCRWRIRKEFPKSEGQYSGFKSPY
In short: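 1321N1 cells stably expressing human P2X7 (T606C/G952A SNP variant) in HBSS/HEPES pH 7.4–7.5 were loaded with Yo-Pro and stimulated with BzATP on FLIPR TETRA. Compound was added 8 min later and fluorescence followed for 20 min. Inhibition scaled between no-compound (0%) and reference compound (100%); IC50 by logistic fit, reported in bins A–D.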

human PXR, sequence (O75469 whole entry): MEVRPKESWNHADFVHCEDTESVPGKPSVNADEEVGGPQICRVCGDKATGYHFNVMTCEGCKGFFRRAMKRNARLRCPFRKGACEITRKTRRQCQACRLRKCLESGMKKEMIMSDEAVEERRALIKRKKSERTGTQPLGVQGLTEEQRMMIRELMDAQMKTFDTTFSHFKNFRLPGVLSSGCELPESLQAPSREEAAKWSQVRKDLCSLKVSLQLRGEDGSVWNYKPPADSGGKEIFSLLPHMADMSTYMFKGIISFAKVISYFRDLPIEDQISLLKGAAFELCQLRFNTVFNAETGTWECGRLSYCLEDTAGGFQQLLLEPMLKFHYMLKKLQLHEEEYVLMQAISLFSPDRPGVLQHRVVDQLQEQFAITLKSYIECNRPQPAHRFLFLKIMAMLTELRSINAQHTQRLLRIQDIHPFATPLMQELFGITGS

SMILES: COCc1ccc(C)c(NC2=NC(=O)N(C)C3=NCC(c4cc(F)c(F)c(F)c4)N23)c1 (stereo not shown) [Compound I-0201]
- PXR 10 μM (human PXR; compound 10 μM): 4
- PXR 50 μM (human PXR; compound 50 μM): 13.5
- inhibition in vivo at 1 mg/kg [1]: 51%
- IC50 (human P2X7 receptor): 26 nM
